Results: the NIST ThermoML archive (doi:10.1016/j.jct.2012.02.034)

Assay: excess molar enthalpy (molar enthalpy of mixing); xn = mol fraction of the nth substance listed
Settings: 313.15 K, Fluid (supercritical or subcritical phases), Flow calorimetry

CCOC(C)=O [ethyl acetate] + O=C=O
Settings	excess molar enthalpy [kJ/mol]
9000 kPa, x2 = 0.087	-0.453
9000 kPa, x2 = 0.172	-0.947
9000 kPa, x2 = 0.256	-1.36
9000 kPa, x2 = 0.381	-1.92
9000 kPa, x2 = 0.462	-2.2
9000 kPa, x2 = 0.542	-2.52
9000 kPa, x2 = 0.66	-2.86
9000 kPa, x2 = 0.737	-3.04
9000 kPa, x2 = 0.814	-2.98
9000 kPa, x2 = 0.889	-2.66
9000 kPa, x2 = 0.926	-2.26
9000 kPa, x2 = 0.963	-1.58
12000 kPa, x2 = 0.123	-0.419
12000 kPa, x2 = 0.235	-0.776
12000 kPa, x2 = 0.338	-1.01
12000 kPa, x2 = 0.432	-1.17
12000 kPa, x2 = 0.519	-1.29
12000 kPa, x2 = 0.599	-1.37
12000 kPa, x2 = 0.673	-1.4
12000 kPa, x2 = 0.742	-1.35
12000 kPa, x2 = 0.806	-1.26
12000 kPa, x2 = 0.866	-1.1
12000 kPa, x2 = 0.949	-0.669
12000 kPa, x2 = 0.975	-0.371
15000 kPa, x2 = 0.132	-0.362
15000 kPa, x2 = 0.25	-0.632
15000 kPa, x2 = 0.356	-0.871
15000 kPa, x2 = 0.452	-1.01
15000 kPa, x2 = 0.539	-1.15
15000 kPa, x2 = 0.618	-1.19
15000 kPa, x2 = 0.724	-1.15
15000 kPa, x2 = 0.788	-1.02
15000 kPa, x2 = 0.818	-0.948
15000 kPa, x2 = 0.875	-0.762
15000 kPa, x2 = 0.927	-0.518
15000 kPa, x2 = 0.953	-0.375
18000 kPa, x2 = 0.071	-0.258
18000 kPa, x2 = 0.137	-0.424
18000 kPa, x2 = 0.259	-0.693
18000 kPa, x2 = 0.367	-0.843
18000 kPa, x2 = 0.463	-0.938
18000 kPa, x2 = 0.55	-0.99
18000 kPa, x2 = 0.629	-1
18000 kPa, x2 = 0.7	-0.942
18000 kPa, x2 = 0.825	-0.754
18000 kPa, x2 = 0.88	-0.607
18000 kPa, x2 = 0.931	-0.414
18000 kPa, x2 = 0.955	-0.312
